Data on 19 molecules can be found in patent US10550080B2 (BRISTOL-MYERS SQUIBB COMPANY, priority 2016, dated 2020).

For data set [1], the target named is NaV1.7 (Homo sapiens (Human), UniProt Q15858). Put plainly: Automated electrophysiology, IonWorks Barracuda population patch clamp, NaV1.7 current (inactivated-state protocol). It counts as cell-based. Conditions: HEK 293 cells expressing NaV1.7; 600 sec compound incubation; read-out: NaV1.7 Barra IC50. As to the method:
(§1) Automated Electrophysiology: Ion Works Barracuda population patch clamp (PPC). PPC measurements were performed using an IonWorks Barracuda instrument (Molecular Devices Corporation, Union City, Calif.) using either PatchPlate™ PPC substrates (Molecular Devices Corporation) with 64 apertures per well. The ability to average currents from 64 recordings from each well greatly improves data consistency and recording success rates in the measurement of NaV1.7 mediated ionic currents. Calculated leak current was digitally subtracted from the total cell NaV1.7 current for each sample point acquired.
(§2) NaV1.7 currents were elicited by a voltage clamp protocol designed to bias the NaV1.7 channels to their inactivated state as follows. From holding potential of −60 mV cells were briefly hyperpolarized to −100 mV for 1.25 sec, then stepped to −20 mV for 20 sec to inactivate the channels. This was followed by a relatively brief hyperpolarization to −100 mv for 300 ms, then a 20 msec test pulse to −20 mV to elicit the NaV1.7 current used to measure the pharmacology of all test compounds. Compounds were incubated for 600 sec between the pre- and post-compound reads. The external recording solution used was (in mM) 137 NaCl, 4 KCl, 1 MgCl2, 1.8 CaCl2, 10 Hepes, 10 glucose, pH to 7.4 with NaOH, and the internal solution used was (in mM) 100 K-gluconate, 40 KCl, 3.2 zMgCl2, 5 EGTA, 10 HEPES pH to 7.2 with KOH. The same solutions were used to record NaV1.5 currents, with the following voltage clamp protocol. NaV1.5 currents were elicited by a voltage clamp protocol designed to bias the NaV1.5 channels to their inactivated state as follows. From holding potential of −40 mV cells were briefly hyperpolarized to −100 mV for 300 ms, then stepped to −10 mV for 20 sec to inactivate the channels. This was followed by a relatively brief hyperpolarization to −100 mv for 30 ms, then a 20 msec test pulse to −10 mV to elicit the NaV1.5 current used to measure the pharmacology of all test compounds.
(§3) HEK 293 cells expressing NaV1.7 and NaV1.5 channels, were used (Essen Biosciences, Ann Arbor, Mich.). Cells were cultured in T-175 flasks and passaged every 2 to 3 days at 1:3 to 1:6 seeding density dilutions. Cells were grown to 70% to 90% confluence in a flask and removed from the incubator (37° C., 5% CO2) 1 to 3 days after plating. Growth medium was aspirated from the culture flasks. Cells were gently rinsed with 10 ml of PBS (Catalog number: 14190144, Gibco) to remove residual media. Next a total of 2 mL TrypLE (Gibco) solution was added, and the flasks containing cells were sat for 3 min at RT, after which, the cells became visibly rounded and were easily dislodged from the bottom of the flask with a few brief taps on a solid surface. A total of 8 mL of media was added to the flask to inactivate the TrypLE, and the mixture was centrifuged at 910 rpm for 4 min. The cell supernatant was decanted, and the cell pellets were resuspended in 5-6 mL of external solution followed by gentle triturations using a 10 ml pipette, and transferred to a 15 ml conical tube and immediately brought to the IW Barracuda instrument.
(§4) Peak membrane currents were analyzed with IW Barracuda software and exported to Excel for further analysis. Concentration response curve fitting was performed with BMS in-house software. IC50 values were obtained by fits of the Hill equation to the average percent inhibition data plotted versus compound concentration. […] Results are reported in Table 1 (NaV1.7 Barra IC50 in nM and NaV1.5 Barra IC50 in nM).

Data set [2] addresses hNaV1.7 (Homo sapiens (Human), UniProt Q15858). As to the kind of experiment: Ligand Binding Assay (LBA), radioligand displacement on hNaV1.7 HEK293 cell membranes. Conditions: 0.5 nM [3H] radioligand, 24 hours at room temperature; read-out: NaV1.7 LBA IC50. As to the method:
Ligand Binding Assay (LBA): hNaV1.7 binding affinities were determined with a filtration binding assay using purified membranes from HEK293 cells stably expressing hNaV1.7. HEK293 cells from a 10-stack cell culture flask (approximately 10^10 cells) were dissociated, frozen, and stored at −80° C. To prepare membranes, the frozen cell pellet was thawed and suspended in 6 ml hypotonic lysis buffer (50 mM HEPES, 0.1% mammalian protease inhibitor cocktail). 1 ml of resuspended cells was added to an additional 6 ml of lysis buffer and homogenized with 30 strokes of a tight pestle in a glass homogenizer. Homogenate was centrifuged at 1000×g for 10 minutes at 4° C. and the resulting supernatant was further centrifuged at 38,500×g for 60 minutes at 4° C. The resulting pellet was resuspended in binding buffer (50 mM HEPES, 130 mM NaCl, 5.4 mM KCl, 0.8 mM MgCl2, 5 mM glucose, pH 7.4) and needle homogenized with a 25 gauge needle. Protein concentration was determined with a BCA protein assay. Purified membranes were aliquoted, flash frozen in an ethyl alcohol dry ice bath, and stored at −80° C. To measure displacement of a radiolabeled ligand, 50 μg of purified hNaV1.7 HEK cell membranes were incubated with test compounds (eight concentrations, in duplicate) and 0.5 nM [3H] labeled radioligand in a 96 well plate for 24 hours at room temperature on a shaker. The total binding reaction volume was 250 μl, consisting of 200 μl purified hNaV1.7 HEK cell membranes, 25 μl test compound, and 25 μl radioligand. Non-specific binding was defined by 20 μM of a reference hNaV1.7 inhibitor. Binding reactions were terminated by filtration through GF/B filters presoaked in 0.5% polyethyleneamine. Filters were washed 5 times with 2 ml each of 4′C wash buffer (50 mM Tris-HCl, pH 7.4 at 4° C.). Bound radioactivity captured on the filters was counted on a liquid scintillation counter. Specific binding, expressed as % inhibition, was fit with Graphpad Prism software to determine binding IC50 values. Results are reported in Table 1 (NaV1.7 LBA IC50 in nM).
Background: In a radioligand displacement assay an active substance lowers the binding of a labelled ligand.

Data set [3] has as its target NaV1.5 (Homo sapiens (Human), UniProt Q14524). Put plainly: Automated electrophysiology, IonWorks Barracuda population patch clamp, NaV1.5 current (inactivated-state protocol). It counts as cell-based. Conditions: HEK 293 cells expressing NaV1.5; read-out: NaV1.5 Barra IC50. The protocol: as §1, §2, §3, §4
(In general: Patch clamp records ionic current or voltage across a cell membrane.)

hNaV1.7, sequence (Q15858 whole entry): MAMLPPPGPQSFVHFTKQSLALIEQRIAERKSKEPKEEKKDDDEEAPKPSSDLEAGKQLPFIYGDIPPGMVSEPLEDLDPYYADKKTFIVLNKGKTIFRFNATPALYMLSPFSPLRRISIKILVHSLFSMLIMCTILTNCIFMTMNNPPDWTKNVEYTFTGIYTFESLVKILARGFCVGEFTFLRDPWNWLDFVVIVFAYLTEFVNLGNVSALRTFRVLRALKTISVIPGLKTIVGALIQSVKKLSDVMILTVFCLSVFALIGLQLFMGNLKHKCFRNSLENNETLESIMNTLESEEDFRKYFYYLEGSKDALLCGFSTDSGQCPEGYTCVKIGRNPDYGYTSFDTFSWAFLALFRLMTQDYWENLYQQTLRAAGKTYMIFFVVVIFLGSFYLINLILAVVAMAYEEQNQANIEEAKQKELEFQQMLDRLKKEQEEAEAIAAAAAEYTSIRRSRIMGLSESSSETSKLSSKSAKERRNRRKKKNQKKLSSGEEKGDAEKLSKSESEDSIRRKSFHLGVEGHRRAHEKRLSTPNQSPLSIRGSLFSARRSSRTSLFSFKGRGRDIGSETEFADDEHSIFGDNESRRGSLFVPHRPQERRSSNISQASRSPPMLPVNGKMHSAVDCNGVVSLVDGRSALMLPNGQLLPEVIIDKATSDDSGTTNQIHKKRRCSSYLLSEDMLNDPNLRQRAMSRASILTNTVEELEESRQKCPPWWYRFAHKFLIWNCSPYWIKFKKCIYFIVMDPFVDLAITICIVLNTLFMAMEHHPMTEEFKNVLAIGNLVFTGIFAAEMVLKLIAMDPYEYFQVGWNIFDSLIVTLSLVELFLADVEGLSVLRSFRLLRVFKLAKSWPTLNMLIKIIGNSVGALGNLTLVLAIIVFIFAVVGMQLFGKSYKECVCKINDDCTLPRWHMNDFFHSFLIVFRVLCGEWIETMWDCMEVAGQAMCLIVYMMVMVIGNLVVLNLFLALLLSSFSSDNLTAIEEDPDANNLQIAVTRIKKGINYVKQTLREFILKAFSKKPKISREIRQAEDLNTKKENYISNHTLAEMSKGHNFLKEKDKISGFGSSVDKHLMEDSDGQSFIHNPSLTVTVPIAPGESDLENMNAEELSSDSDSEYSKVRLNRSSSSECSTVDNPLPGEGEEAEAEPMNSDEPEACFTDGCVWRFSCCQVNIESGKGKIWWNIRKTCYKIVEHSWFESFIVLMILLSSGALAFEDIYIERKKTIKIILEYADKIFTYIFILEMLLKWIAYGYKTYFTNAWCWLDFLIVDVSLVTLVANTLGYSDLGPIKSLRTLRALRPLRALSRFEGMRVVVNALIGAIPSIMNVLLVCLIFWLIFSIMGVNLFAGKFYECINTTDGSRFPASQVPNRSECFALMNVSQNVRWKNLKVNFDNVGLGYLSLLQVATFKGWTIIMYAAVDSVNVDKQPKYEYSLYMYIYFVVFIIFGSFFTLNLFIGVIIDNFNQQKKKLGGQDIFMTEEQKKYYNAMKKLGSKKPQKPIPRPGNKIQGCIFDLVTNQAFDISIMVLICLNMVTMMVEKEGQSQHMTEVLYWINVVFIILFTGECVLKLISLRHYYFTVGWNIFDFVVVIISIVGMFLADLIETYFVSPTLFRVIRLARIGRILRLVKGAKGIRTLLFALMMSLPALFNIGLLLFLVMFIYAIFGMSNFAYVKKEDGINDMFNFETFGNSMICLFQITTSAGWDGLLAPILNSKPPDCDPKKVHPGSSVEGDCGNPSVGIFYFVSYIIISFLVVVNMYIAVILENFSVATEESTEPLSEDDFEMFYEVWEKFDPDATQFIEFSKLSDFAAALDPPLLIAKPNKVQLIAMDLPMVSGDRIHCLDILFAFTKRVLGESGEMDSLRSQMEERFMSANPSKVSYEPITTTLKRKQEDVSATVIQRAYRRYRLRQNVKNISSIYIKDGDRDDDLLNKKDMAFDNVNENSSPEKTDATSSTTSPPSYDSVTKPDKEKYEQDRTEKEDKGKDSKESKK
NaV1.7, sequence (Q15858 whole entry): as above
NaV1.5, sequence (Q14524 whole entry): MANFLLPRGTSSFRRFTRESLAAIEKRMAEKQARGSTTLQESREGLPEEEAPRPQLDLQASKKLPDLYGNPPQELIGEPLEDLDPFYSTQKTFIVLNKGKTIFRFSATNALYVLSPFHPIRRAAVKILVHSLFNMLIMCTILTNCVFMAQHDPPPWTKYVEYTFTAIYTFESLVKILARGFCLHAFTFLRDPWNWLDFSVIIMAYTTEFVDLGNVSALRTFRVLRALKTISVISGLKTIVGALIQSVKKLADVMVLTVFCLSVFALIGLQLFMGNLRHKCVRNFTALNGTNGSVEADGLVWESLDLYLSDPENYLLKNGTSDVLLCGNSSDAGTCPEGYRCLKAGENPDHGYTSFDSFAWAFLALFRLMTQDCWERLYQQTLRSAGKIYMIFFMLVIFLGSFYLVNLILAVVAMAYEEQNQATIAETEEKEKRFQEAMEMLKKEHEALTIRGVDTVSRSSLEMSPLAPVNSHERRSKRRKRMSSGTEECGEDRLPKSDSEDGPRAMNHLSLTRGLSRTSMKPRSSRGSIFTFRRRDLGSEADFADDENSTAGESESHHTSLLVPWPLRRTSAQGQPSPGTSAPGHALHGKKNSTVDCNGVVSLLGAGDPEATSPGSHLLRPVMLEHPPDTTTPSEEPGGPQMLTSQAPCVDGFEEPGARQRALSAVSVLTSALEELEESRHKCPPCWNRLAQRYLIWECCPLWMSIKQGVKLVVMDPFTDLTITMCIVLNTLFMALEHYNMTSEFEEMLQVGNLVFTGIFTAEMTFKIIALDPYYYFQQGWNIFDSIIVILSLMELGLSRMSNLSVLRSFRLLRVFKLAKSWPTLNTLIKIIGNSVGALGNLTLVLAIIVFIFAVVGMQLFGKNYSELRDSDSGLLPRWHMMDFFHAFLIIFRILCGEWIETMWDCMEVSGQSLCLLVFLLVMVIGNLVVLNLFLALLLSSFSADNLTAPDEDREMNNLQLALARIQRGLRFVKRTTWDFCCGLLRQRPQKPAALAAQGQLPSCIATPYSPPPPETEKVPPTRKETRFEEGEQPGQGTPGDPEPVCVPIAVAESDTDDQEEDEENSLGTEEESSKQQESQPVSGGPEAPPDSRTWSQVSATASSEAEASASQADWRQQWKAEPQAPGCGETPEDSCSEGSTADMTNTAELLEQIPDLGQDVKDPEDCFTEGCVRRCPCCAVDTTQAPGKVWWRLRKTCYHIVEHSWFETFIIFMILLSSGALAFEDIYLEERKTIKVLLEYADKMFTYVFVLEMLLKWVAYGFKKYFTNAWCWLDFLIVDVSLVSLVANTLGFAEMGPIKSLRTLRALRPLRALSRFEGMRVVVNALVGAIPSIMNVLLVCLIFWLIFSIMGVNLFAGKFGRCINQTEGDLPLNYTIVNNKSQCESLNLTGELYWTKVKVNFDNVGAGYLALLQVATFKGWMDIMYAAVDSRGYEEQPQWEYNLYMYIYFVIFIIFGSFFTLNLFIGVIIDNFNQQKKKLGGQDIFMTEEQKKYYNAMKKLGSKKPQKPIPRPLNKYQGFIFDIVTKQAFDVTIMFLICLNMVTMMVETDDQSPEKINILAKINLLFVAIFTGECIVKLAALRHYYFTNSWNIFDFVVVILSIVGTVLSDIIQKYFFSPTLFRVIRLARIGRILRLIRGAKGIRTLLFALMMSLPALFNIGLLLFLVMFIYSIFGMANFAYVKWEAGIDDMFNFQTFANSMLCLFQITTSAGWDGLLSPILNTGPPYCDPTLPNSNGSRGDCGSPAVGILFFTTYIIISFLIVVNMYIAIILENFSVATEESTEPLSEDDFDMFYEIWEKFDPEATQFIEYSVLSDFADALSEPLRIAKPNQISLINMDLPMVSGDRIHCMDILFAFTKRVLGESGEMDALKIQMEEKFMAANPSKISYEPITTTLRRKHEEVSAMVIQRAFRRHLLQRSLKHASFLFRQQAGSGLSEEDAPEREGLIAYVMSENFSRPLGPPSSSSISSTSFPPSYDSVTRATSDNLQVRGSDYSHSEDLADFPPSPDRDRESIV

As to `CC(C)COc1ncc(-c2cn(C)c3cc(C(=O)NS(=O)(=O)C4CC4)ccc23)cc1Cl` [Example 24, 3-(5-Chloro-6-isobutoxypyridin-3-yl)-N-(cyclopropylsulfonyl)-1-methyl-1H-indole-6-carboxamide], the values for the IC50 in data set [1], in data set [2] and in data set [3] were 294 nM, 22 nM and 12000 nM, respectively.
Turning to `CC(C)c1cccc(-c2cn(C)c3cc(C(=O)NS(C)(=O)=O)ccc23)c1` [Example 16, 3-(3-Isopropylphenyl)-1-methyl-N-(methylsulfonyl)-1H-indole-6-carboxamide], the IC50 in data set [1] is 427 nM; in data set [2] it was 217 nM; in data set [3], over 30000 nM.
The corresponding values for `CC(C)COc1ncc(-c2cn(C)c3cc(C(=O)NS(=O)(=O)C4CC4)c(F)cc23)cc1Cl` [Example 43, 3-(5-Chloro-6-isobutoxypyridin-3-yl)-N-(cyclopropylsulfonyl)-5-fluoro-1-methyl-1H-indole-6-carboxamide] are 310 nM, 3.4 nM and 4850 nM.
Take `CC(C)COc1ccc(-c2cn(C)c3cc(C(=O)NS(C)(=O)=O)ccc23)cc1` [Example 22, 3-(4-Isobutoxyphenyl)-1-methyl-N-(methylsulfonyl)-1H-indole-6-carboxamide]: the IC50 in data set [1] came to 525 nM; in data set [2], 275 nM.
In the case of `CC(C)COc1ncc(-c2c3ccc(C(=O)NS(=O)(=O)C4CC4)cc3nn2C)cc1Cl` [Example 41, 3-(5-Chloro-6-isobutoxypyridin-3-yl)-N-(cyclopropylsulfonyl)-2-methyl-2H-indazole-6-carboxamide], the IC50 turned out to be 195 nM in data set [1], 673 nM in data set [2] and 11300 nM in data set [3].
`Cn1cc(-c2ccc(C(F)F)cc2)c2cc(F)c(C(=O)NS(=O)(=O)C3CC3)cc21` [Example 49, N-(Cyclopropylsulfonyl)-3-(4-(difluoromethyl)phenyl)-5-fluoro-1-methyl-1H-indole-6-carboxamide]: the results for the IC50 in data set [1], in data set [2] and in data set [3] were 38 nM, 146 nM and 9670 nM, respectively.
Regarding `CC(C)COc1ncc(-c2cn(CC(C)C)c3cc(C(=O)NS(C)(=O)=O)ccc23)cc1Cl` [Example 27, 3-(5-Chloro-6-isobutoxypyridin-3-yl)-1-isobutyl-N-(methylsulfonyl)-1H-indole-6-carboxamide], the IC50 was 3330 nM in data set [1] and 23700 nM in data set [3].
On to `Cn1cc(-c2ccc(C(F)(F)F)cc2)c2cc(F)c(C(=O)NS(=O)(=O)C3CC3)cc21` [Example 47], for which the figures for the IC50 in data set [1], in data set [2] and in data set [3] were 16 nM, 39 nM and 3820 nM, respectively.
With `CCc1cccc(-c2cn(C)c3cc(C(=O)NS(C)(=O)=O)ccc23)c1` [Example 17, 3-(3-Ethylphenyl)-1-methyl-N-(methylsulfonyl)-1H-indole-6-carboxamide], the IC50 in data set [1] is 220 nM; in data set [2], 440 nM; in data set [3], over 30000 nM.
As for `CC(C)COc1ncc(-c2nn(C)c3cc(C(=O)NS(C)(=O)=O)ccc23)cc1Cl` [Example 39, 3-(5-Chloro-6-isobutoxypyridin-3-yl)-1-methyl-N-(methylsulfonyl)-1H-indazole-6-carboxamide], the IC50 stood at 66 nM in data set [1], 67 nM in data set [2] and 6510 nM in data set [3].
The like results for `CC(C)COc1ccc(-c2cn(C)c3cc(C(=O)NS(=O)(=O)C4CC4)c(F)cc23)cn1` [Example 45, N-(Cyclopropylsulfonyl)-5-fluoro-3-(6-isobutoxypyridin-3-yl)-1-methyl-1H-indole-6-carboxamide] were, in that order, 59 nM, 26 nM and 3700 nM.
The corresponding values for `Cn1cc(-c2ccc(OC(F)(F)F)cc2)c2ccc(C(=O)NS(C)(=O)=O)cc21` [Example 4, 1-Methyl-N-(methylsulfonyl)-3-(4-(trifluoromethoxy)phenyl)-1H-indole-6-carboxamide] are 80 nM, 243 nM and 18300 nM.
As to `CC(C)COc1ncc(-c2cn(CC(C)C)c3cc(C(=O)NS(=O)(=O)C4CC4)ccc23)cc1Cl` [Example 28, 3-(5-Chloro-6-isobutoxypyridin-3-yl)-N-(cyclopropylsulfonyl)-1-isobutyl-1H-indole-6-carboxamide], the IC50 came out at 8050 nM in data set [1] and 11300 nM in data set [3].
In the case of `CC(C)COc1ncc(-c2cn(C)c3cc(C(=O)NS(=O)(=O)N(C)C)ccc23)cc1Cl` [Example 25, 3-(5-Chloro-6-isobutoxypyridin-3-yl)-N—(N,N-dimethylsulfamoyl)-1-methyl-1H-indole-6-carboxamide], the IC50 in data set [1] was 1280 nM; in data set [3], 6330 nM.
As for `Cn1cc(-c2cncc(F)c2)c2ccc(C(=O)NS(C)(=O)=O)cc21` [Example 7, 3-(5-Fluoropyridin-3-yl)-1-methyl-N-(methylsulfonyl)-1H-indole-6-carboxamide], the IC50 in data set [1] and in data set [3] was over 30000 nM in each case.
`CN(C)S(=O)(=O)NC(=O)c1ccc2c(-c3ccc(C(F)(F)F)cc3)cn(C)c2c1` [Example 33]: the IC50 in data set [1] was determined as 1920 nM; in data set [3], 24500 nM.
The corresponding values for `CC(C)COc1ncc(-c2cn(C)c3cc(C(=O)NS(=O)(=O)N4CCCCC4)ccc23)cc1Cl` [Example 26, 3-(5-Chloro-6-isobutoxypyridin-3-yl)-1-methyl-N-(piperidin-1-ylsulfonyl)-1H-indole-6-carboxamide] are 4180 nM and 8770 nM.
`CN(C)S(=O)(=O)NC(=O)c1ccc2c(-c3ccc(C(F)F)cc3)cn(C)c2c1` [Example 32, 3-(4-(Difluoromethyl)phenyl)-N—(N,N-dimethylsulfamoyl)-1-methyl-1H-indole-6-carboxamide]: the IC50 was 1910 nM in data set [1] and over 30000 nM in data set [3].
For the molecule `Cn1cc(-c2cccnc2)c2ccc(C(=O)NS(C)(=O)=O)cc21` [Example 8, 1-Methyl-N-(methylsulfonyl)-3-(pyridin-3-yl)-1H-indole-6-carboxamide], the IC50 in data set [1] is over 30000 nM.

In general, IC50 refers to the point on the concentration scale where inhibition reaches its midpoint.
